From patent US20210255193A1, “LYSINE REACTIVE PROBES AND USES THEREOF” (The Scripps Research Institute, priority 2017, published 2021)
Values belong to the molecule of their own block, whether it stands above or below them.

Tests used:
Assay in all cases: competitive isoTOP-ABPP
Assay type in all cases: binding
[1] = target: T1, FECH Ferrochelatase, mitochondrial (Homo sapiens, UniProt P22830)
T1 construct: isoTOP-ABPP experiments performed in cell lysates (in vitro); endogenous in cells; host or cells: soluble proteome of human cancer cell lines (MDA-MB-231; Ramos and Jurkat also prepared)
T1 sequence (P22830 55-423): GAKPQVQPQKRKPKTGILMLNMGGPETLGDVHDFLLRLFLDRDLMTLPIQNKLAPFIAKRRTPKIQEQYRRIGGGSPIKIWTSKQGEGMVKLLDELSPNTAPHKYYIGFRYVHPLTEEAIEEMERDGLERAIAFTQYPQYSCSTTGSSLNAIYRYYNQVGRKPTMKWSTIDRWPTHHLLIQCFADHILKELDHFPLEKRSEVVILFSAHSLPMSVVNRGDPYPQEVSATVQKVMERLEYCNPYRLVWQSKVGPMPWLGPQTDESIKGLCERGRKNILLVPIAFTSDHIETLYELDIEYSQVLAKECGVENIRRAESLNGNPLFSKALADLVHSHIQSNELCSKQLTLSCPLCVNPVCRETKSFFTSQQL
Method in brief: (§1)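 Readout: isotopic light/heavy MS1 peak-area ratio (R, DMSO heavy over compound light), median across peptides sharing a modified lysine. Lysate received fragment (activated esters 50 μM, guanidinylating agents 100 μM final) or DMSO, then 0.1 mM STP-alkyne probe for 1 h at ambient temperature.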

[2] = target: T2, HNRNPK Heterogeneous nuclear ribonucleoprotein K (Homo sapiens, UniProt P61978); conditions: for isoTOP-ABPP ratio (R) at liganded lysine P61978_K405: sol, 231
T2 construct: isoTOP-ABPP experiments performed in cell lysates (in vitro); endogenous in cells; host or cells: soluble proteome of human cancer cell lines (MDA-MB-231, Ramos, Jurkat)
Method in brief: as §1

[3] = target: T3, NPEPPS Puromycin-sensitive aminopeptidase (Homo sapiens, UniProt P55786); conditions: for R value (DMSO/fragment) for probe 1 labeling: P55786_K712; for R value (DMSO/fragment) for probe 1 labeling / isoTOP-ABPP ratio (R) at liganded lysine P55786_K712 / isoTOP-ABPP reactivity ratio at lysine P55786_K712: 50 uM, in vitro; for R value (DMSO/fragment) for probe 1 labeling / isoTOP-ABPP reactivity ratio at lysine P55786_K712: 231 sol; for isoTOP-ABPP ratio (R) at liganded lysine P55786_K712: sol, 231
T3 construct: isoTOP-ABPP experiments performed in cell lysates (in vitro); endogenous in cells; host or cells: soluble proteome of human cancer cell lines (MDA-MB-231, Ramos, Jurkat)
T3 sequence (P55786 whole entry, the tested form may be a part): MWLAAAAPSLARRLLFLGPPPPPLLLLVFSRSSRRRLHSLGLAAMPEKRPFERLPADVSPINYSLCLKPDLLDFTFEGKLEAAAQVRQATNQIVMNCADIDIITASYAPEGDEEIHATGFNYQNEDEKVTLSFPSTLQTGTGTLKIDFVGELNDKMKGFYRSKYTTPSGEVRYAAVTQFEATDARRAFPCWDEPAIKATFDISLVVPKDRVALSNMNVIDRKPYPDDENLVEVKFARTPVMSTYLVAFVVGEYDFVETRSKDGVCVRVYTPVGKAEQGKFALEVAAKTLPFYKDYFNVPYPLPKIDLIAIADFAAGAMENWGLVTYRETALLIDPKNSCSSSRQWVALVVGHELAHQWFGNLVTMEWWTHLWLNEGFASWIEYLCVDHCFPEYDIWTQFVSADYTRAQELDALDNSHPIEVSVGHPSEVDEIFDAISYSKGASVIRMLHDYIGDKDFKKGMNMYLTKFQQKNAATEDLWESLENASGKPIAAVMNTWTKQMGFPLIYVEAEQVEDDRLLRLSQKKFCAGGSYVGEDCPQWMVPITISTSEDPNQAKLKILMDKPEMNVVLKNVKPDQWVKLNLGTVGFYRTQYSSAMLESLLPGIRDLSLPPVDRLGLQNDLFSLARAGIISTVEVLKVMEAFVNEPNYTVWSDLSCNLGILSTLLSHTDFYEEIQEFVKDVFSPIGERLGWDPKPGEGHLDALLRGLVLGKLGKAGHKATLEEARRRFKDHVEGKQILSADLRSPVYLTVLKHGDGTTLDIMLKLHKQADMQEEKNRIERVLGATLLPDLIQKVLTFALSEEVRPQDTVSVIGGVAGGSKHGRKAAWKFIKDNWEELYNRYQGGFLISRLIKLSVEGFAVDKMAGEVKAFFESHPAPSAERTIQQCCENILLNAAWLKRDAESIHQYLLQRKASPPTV
Method in brief: as §1

[4] = target: T4, RPL10 60S ribosomal protein L10 (Homo sapiens, UniProt P27635)
T4 construct: isoTOP-ABPP experiments performed in cell lysates (in vitro); endogenous in cells; host or cells: soluble proteome of human cancer cell lines (MDA-MB-231; Ramos and Jurkat also prepared)
Method in brief: as §1

[5] = target: T5, RQCD1 Cell differentiation protein RCD1 homolog (Homo sapiens, UniProt Q92600); conditions: for R value (DMSO/fragment) for probe 1 labeling: Q92600_K230; for R value (DMSO/fragment) for probe 1 labeling / isoTOP-ABPP ratio (R) at liganded lysine Q92600_K230 / isoTOP-ABPP reactivity ratio at lysine Q92600_K230: 50 uM, in vitro; for R value (DMSO/fragment) for probe 1 labeling / isoTOP-ABPP reactivity ratio at lysine Q92600_K230: 231 sol; for isoTOP-ABPP ratio (R) at liganded lysine Q92600_K230: sol, 231
T5 construct: isoTOP-ABPP experiments performed in cell lysates (in vitro); endogenous in cells; host or cells: soluble proteome of human cancer cell lines (MDA-MB-231; Ramos and Jurkat also prepared)
T5 sequence (Q92600 whole entry, the tested form may be a part): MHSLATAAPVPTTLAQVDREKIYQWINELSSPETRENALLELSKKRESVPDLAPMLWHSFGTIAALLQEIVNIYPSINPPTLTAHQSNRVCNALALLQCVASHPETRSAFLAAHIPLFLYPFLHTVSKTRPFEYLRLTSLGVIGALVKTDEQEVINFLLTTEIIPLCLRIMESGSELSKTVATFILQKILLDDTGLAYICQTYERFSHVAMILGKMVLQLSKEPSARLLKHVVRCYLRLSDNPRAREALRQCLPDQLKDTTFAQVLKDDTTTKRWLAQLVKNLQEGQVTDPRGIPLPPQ
Method in brief: as §1

[6] = target: T6, GTPBP3 tRNA modification GTPase GTPBP3, mitochondrial (Homo sapiens, UniProt Q969Y2); conditions: 50 uM, in vitro
T6 construct: isoTOP-ABPP experiments performed in cell lysates (in vitro); endogenous in cells; host or cells: soluble proteome of human cancer cell lines (MDA-MB-231; Ramos and Jurkat also prepared)
T6 sequence (Q969Y2 21-492): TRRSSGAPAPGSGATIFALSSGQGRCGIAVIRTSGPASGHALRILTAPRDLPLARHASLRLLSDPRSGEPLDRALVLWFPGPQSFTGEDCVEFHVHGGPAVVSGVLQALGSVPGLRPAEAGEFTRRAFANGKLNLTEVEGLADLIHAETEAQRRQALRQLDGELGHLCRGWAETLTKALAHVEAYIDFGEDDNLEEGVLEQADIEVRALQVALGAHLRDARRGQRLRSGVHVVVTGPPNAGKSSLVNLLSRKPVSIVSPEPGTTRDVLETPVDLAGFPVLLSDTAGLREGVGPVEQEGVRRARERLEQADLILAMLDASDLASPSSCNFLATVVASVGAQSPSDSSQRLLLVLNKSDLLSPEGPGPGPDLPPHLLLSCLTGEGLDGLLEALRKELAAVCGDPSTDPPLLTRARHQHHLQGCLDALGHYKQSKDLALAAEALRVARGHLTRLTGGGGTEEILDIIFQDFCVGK
Method in brief: as §1

R value (DMSO/fragment) for probe 1 labeling [3]: 1.2
R value (DMSO/fragment) for probe 1 labeling [5]: 1.1
SMILES: COc1cc(CCC(=O)Oc2c(F)c(F)c(F)c(F)c2F)cc(OC)c1OC [fragment 23, Pentafluorophenyl 3-(3,4,5-trimethoxyphenyl)propanoate]

R value (DMSO/fragment) for probe 1 labeling ([1]; P22830_K304, 50 uM, 231 sol, in vitro): 2.0
R value (DMSO/fragment) for probe 1 labeling ([6]; Q969Y2_K492, 231 sol): 1.1
R value (DMSO/fragment) for probe 1 labeling [3]: 1.3
R value (DMSO/fragment) for probe 1 labeling ([4]; P27635_K121, 50 uM, 231 sol, in vitro): 0.9
R value (DMSO/fragment) for probe 1 labeling [5]: 1.0
SMILES: Cn1cc(CC(=O)Oc2c(F)c(F)c(F)c(F)c2F)c2ccccc21 [fragment 22, Pentafluorophenyl 2-(1-methyl-1H-indol-3-yl)acetate]

isoTOP-ABPP reactivity ratio at lysine P22830_K304 ([1]; 50 uM, 231 sol, in vitro): 1.0
isoTOP-ABPP reactivity ratio at lysine P61978_K405 ([2]; 50 uM, 231 sol, in vitro): 1.3
isoTOP-ABPP reactivity ratio at lysine P55786_K712 [3]: 1.1
SMILES: O=C(Oc1c(F)c(F)c(F)c(F)c1F)c1ccc2ccccc2n1 [fragment 25, Pentafluorophenyl quinoline-2-carboxylate]

isoTOP-ABPP reactivity ratio at lysine P22830_K304 ([1]; 50 uM, 231 sol, in vitro): 1.5
isoTOP-ABPP reactivity ratio at lysine P55786_K712 [3]: 1.0
SMILES: CCn1cc(C(=O)Oc2c(F)c(F)c(F)c(F)c2F)c(=O)c2ccc(C)nc21 [fragment 28, Pentafluorophenyl 1-ethyl-7-methyl-4-oxo-1,4-dihydro-1,8-naphthyridine-3-carboxylate]

Second part, the molecule before the results:

SMILES: COC(=O)NC(=NC(=O)OCC1c2ccccc2-c2ccccc21)n1cccn1 [fragment 49, N-Methoxycarbonyl-N′-9-fluorenylmethoxycarbonyl-pyrazole-1-carboxamidine]
isoTOP-ABPP ratio, lysine P22830_K304 ([1]; 100 uM_231_sol_in vitro): 5.3
isoTOP-ABPP ratio, lysine P61978_K405 ([2]; 100 uM_231_sol_in vitro): 1.9
isoTOP-ABPP ratio, lysine P55786_K712 ([3]; 100 uM_231_sol_in vitro): 1.3
isoTOP-ABPP ratio, lysine P27635_K121 ([4]; 100 uM_231_sol_in vitro): 1.8
isoTOP-ABPP ratio, lysine Q92600_K230 ([5]; 100 uM_231_sol_in vitro): 1.1

SMILES: O=C(Oc1ccc([N+](=O)[O-])cc1[N+](=O)[O-])c1ccc2ccccc2n1 [fragment 35, 2,4-Dinitrophenyl quinoline-2-carboxylate]
isoTOP-ABPP ratio (R) at liganded lysine P61978_K405 ([2]; 50 uM, in vitro): 0.9
isoTOP-ABPP ratio (R) at liganded lysine P55786_K712 [3]: 1.3
isoTOP-ABPP ratio (R) at liganded lysine P27635_K121 ([4]; 50 uM, in vitro, sol, 231): 0.6
isoTOP-ABPP ratio (R) at liganded lysine Q92600_K230 [5]: 0.9

SMILES: O=C(Oc1c(F)c(F)c(F)c(F)c1F)C1CCN(C(=O)OCc2ccccc2)CC1 [fragment 24, 1-Benzyl 4-(pentafluorophenyl) piperidine-1,4-dicarboxylate]
isoTOP-ABPP reactivity ratio at lysine P22830_K304 ([1]; 50 uM, 231 sol, in vitro): 1.5
isoTOP-ABPP reactivity ratio at lysine P55786_K712 [3]: 1.0

SMILES: O=C(Oc1ccc([N+](=O)[O-])cc1[N+](=O)[O-])c1cc(C(F)(F)F)cc(C(F)(F)F)c1 [fragment 31, 2,4-Dinitrophenyl 3,5-bis(trifluoromethyl)benzoate]
isoTOP-ABPP reactivity ratio at lysine P22830_K304 ([1]; 50 uM, 231 sol, in vitro): 3.2
isoTOP-ABPP reactivity ratio at lysine Q969Y2_K492 ([6]; 231 sol): 1.4
isoTOP-ABPP reactivity ratio at lysine P55786_K712 [3]: 1.1
isoTOP-ABPP reactivity ratio at lysine Q92600_K230 [5]: 1.0

SMILES: O=C(Oc1ccc([N+](=O)[O-])cc1[N+](=O)[O-])c1ccccc1Nc1cccc(C(F)(F)F)c1 [fragment 40, 2,4-Dinitrophenyl 2-((3-(trifluoromethyl)phenyl)amino)benzoate]
isoTOP-ABPP ratio (R) at liganded lysine Q969Y2_K492 ([6]; sol, 231): 0.6
isoTOP-ABPP ratio (R) at liganded lysine P61978_K405 ([2]; 50 uM, in vitro): 0.9
isoTOP-ABPP ratio (R) at liganded lysine P55786_K712 [3]: 1.0
isoTOP-ABPP ratio (R) at liganded lysine Q92600_K230 [5]: 0.9

SMILES: COc1cc(CCC(=O)Oc2ccc([N+](=O)[O-])cc2[N+](=O)[O-])cc(OC)c1OC [fragment 33, 2,4-Dinitrophenyl 3-(3,4,5-trimethoxyphenyl)propanoate]
isoTOP-ABPP reactivity ratio at lysine P22830_K304 ([1]; 50 uM, 231 sol, in vitro): 1.7
isoTOP-ABPP reactivity ratio at lysine P55786_K712 [3]: 1.2
isoTOP-ABPP reactivity ratio at lysine Q92600_K230 [5]: 2.5
